Results as given in patent publication US20160331779A1 (priority 2015, published 2016).
Several values for one entry are separate records, joined by “and”; a condition that tells them apart may be missing. Identical values can stand only once. Like-named read-outs stand apart in the source and are kept apart here.

Columns and labels:
A549 cells = conditions: pH 4
[1] = tested on: streptokinase enzyme from S. pyogenes; test: streptokinase inactivation, clot formation enzymatic assay; assay type: biochemical; conditions: streptokinase 175 U/mL incubated 1 hour; fibrin remained insoluble, glass bead remained at top
Experimental: Inactivation of streptokinase was determined by clot formation enzymatic assay (Sigma Aldrich, St. Louis, Mo.), whereby thrombin converts the soluble fibrinogen into […] (Crew 2013). In the presence of streptokinase enzyme from S. pyogenes, the insoluble fibrin is converted into soluble fibrin fragments. Several hours before the study, streptokinase 175 U/mL) was incubated with the irrigation solution for 1 hour, followed by inactivation of excess irrigation solution by adding an equal volume of 20 mM methionine for 1 hour at room temperature.
In a separate glass tube, fibrinogen solution containing borate buffer, gelatin diluent, and plasminogen were mixed by swirling, and then equilibrated at 37° C. for 3 minutes. Irrigation solution and methionine treated streptokinase was added to the solution, mixed by swirling, and equilibrated at 37° C. for 1 minute prior to the addition of thrombin. The solution was mixed by swirling and equilibrated at 37° C. for approximately 2-3 minutes to allow for clot formation. A 4 mm glass bead was added to the top of the reaction mixture, and the time for the glassbead to touch the bottom of the tube was observed. In this clot assay, 0.001 μg/mL of the hypochlorous acid completely inactivated streptokinase, causing the fibrin to remain insoluble in solution, and the glass bead to remain at the top of the reaction mixture.

[2] = molecular target: alpha-hemolysin toxin of S. aureus (Staphylococcus aureus, UniProt P09616); assay type: cell-based
[3] = 2.5% NaOCl, cited from earlier work
Aspergillus flavus = conditions: added to the fungal growth medium prior to inoculation; cited from earlier work
[4] = tested on: root canal microorganisms; conditions: 2.5% NaOCl, after biomechanical preparation; cited from earlier work

Chain of alpha-hemolysin toxin of S. aureus (P09616 27-319 limits assumed): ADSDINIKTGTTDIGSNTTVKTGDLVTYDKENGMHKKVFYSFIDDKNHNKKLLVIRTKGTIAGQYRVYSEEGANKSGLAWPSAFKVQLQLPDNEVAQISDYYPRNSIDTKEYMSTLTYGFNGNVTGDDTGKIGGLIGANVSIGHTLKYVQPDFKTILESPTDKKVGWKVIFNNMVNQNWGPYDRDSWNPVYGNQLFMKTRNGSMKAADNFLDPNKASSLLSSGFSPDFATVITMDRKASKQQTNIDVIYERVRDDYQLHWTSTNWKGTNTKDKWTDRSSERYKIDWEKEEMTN

SMILES	Dilution of wound exudate cytotoxic to A549 cells (A549 cells)	concentration that completely inactivated streptokinase [1] [µg/mL]	EC50 [2]	endotoxins reduced ([3]; 7 days after biomechanical preparation) [%]	endotoxins reduced ([3]; immediately after biomechanical preparation) [%]	NaOCl concentration that completely inhibited the fungal growth (Aspergillus flavus) [mM]	root canal microorganisms eliminated [4] [%]
OCl [HOCl, hypochlorous acid]	1:4	0.001	–	–	–	–	–
[Na+].[O-]Cl [hypochlorite, sodium hypochlorite]	–	–	0.95 ± 0.18 µg/mL and 0.99 ± 0.06 µg/mL	83.2	88.8	2.8	100
